# In publication PMC12635197, “Discovery of first-in-class inhibitors of the TRF1:TIN2 protein:protein interaction by fragment screening” (Scientific Reports, 2025):
# “Also recorded” adds a separate entry of the source.
# Assays:
# shelterin complex = biological target: T1, shelterin complex (Homo sapiens, UniProt P54274); assay: Mass photometry assay of TRF1 eviction from shelterin; assay type: biochemical
# T1 construct: evicted full-length TRF1 from the shelterin complex; made in house; host or cells: Spodoptera frugiperda (Sf9) insect cells, MultiBac baculovirus
# T1 sequence (P54274 1-439): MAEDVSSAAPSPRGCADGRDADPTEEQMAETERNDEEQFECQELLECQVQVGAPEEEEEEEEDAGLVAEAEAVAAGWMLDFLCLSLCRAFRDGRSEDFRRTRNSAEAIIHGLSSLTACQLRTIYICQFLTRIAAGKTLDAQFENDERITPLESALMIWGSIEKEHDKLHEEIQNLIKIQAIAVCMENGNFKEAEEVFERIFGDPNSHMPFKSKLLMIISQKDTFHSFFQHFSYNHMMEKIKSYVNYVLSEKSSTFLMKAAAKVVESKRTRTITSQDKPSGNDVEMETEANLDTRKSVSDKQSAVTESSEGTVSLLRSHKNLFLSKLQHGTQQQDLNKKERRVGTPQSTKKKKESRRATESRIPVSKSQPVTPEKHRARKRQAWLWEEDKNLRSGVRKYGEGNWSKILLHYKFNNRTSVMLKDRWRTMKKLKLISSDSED
# Description: We developed a mass-photometry based assay to evaluate the ability of compound 40 to disrupt the TRF1TRFH:TIN2TBM interaction and subsequently evict TRF1 from the full shelterin complex. We expressed recombinant shelterin in insect cells (see Materials and Methods) and purified it via affinity and size exclusion chromatography (SEC). Given the compositional heterogeneity of shelterin, also observed by Zinder et al. 2022[42], we enriched a complex of approximately 700 kDa by serial SEC. The resulting complex was incubated with increasing concentrations of compound 40, and the resulting mass distribution was analysed by mass photometry. Due to disassembly of the complex upon dilution to nanomolar concentrations required for mass photometry, we stabilised it by limited crosslinking using glutaraldehyde prior to dilution to assess potential TRF1 dissociation (Supplementary Fig. 6). With increasing concentrations of compound 40, we observed an increase in a peak around 100 kDa, corresponding in size to the full-length TRF1 dimer (Fig. 6a; Supplementary Fig. 7a, b), consistent with eviction of TRF1 from shelterin. […] Additionally, the mass photometry peak of shelterin shifted and reduced in size by approximately 100 kDa upon the addition of > 250 µM of compound 40, indicating the removal of TRF1 from the complex (Fig. 6a). To confirm whether the evicted entity corresponds to TRF1, we analysed the full shelterin complex by SDS-PAGE, upon co-incubation with increasing amounts of compound 40 or control compound 60 and subsequent mild crosslinking, analogous to the mass photometry experiment. […] To confirm its identity, we performed Western blotting, probing for TRF1, TRF2 and TIN2. This analysis confirmed that the released protein is TRF1 (Fig. 6c, f).
# Mass Photometry (MP) experiments were performed using a Refeyn OneMP instrument. […] Data were processed and analysed using Refeyn DiscoverMP software (v2024 R2). Gaussian fits for the mass distribution histograms, mass measurements and percentage abundances (of peak counts to total counts) were determined for each peak observed.
# [1] = Fragment solubility assay (quantitative 1H NMR); assay type: physicochemical; conditions: NMR buffer, overnight incubation, 1H NMR quantified against 1 mM caffeine standard
smiles,measurement,setting,value
COc1cc(COc2ccc(S(=O)(=O)[O-])c3ccccc23)cc(OC)c1.[Na+] [Compound 40],concentration at which TRF1 eviction reaches a plateau,"shelterin complex; 1.25 µM shelterin, 100-300 µM compound, 1 h, glutaraldehyde crosslinking, n = 1",250 µM
same,eviction of TRF1 from shelterin (100-kDa TRF1 peak),"shelterin complex; compound 40 at 100-300 µM, compound 60 at 300 µM",expels TRF1 from purified shelterin; also recorded: concentration-dependent increase in eviction of TRF1
same,reduction in size of shelterin mass photometry peak,shelterin complex; upon addition of > 250 µM compound,around 100 kDa
same,Kin. Sol.,[1],320 µM
